Data: patent publication US20210079402A1, “INHIBITION OF ZSCAN4 FOR INHIBITION OF TUMOR GROWTH” (University of Maryland, Baltimore, priority 2018, published 2021)
Where a SMILES comes first, the peptide text is derived from it. The star is where a group is joined. Cbz = O=C(OCc1ccccc1)*

Assays:
[1] = tested on: autophagy in tet-ZSCAN4 Tu167 cells; assay: Autophagy pathway assay (immunoblot); format: cell-based, human; conditions: 5 nM Bafilomycin A1 or 25 μM Chloroquine
Experimental: tet-ZSCAN4 Tu167 cells were treated for 24 h with Dox and then autophagy inhibitors: 5 nM of Bafilomycin A1 or 25 μM of Chloroquine (Sigma) were added for 24 h. Whole cell lysate (50 μg) in RIPA buffer was used on 8% SDS-PAGE analyzed by immunoblot to visualize the following antigens: anti-ZSCAN4 (1:1000; Origene), anti-p62 (1:5000; Sigma), anti-LC3 (1:1000; CellSignaling Technology), Anti-Beta Actin (1:10,000; Millipore). All data shown represent at least 3 independent experiments.

proteasome [2] = assay: ZSCAN4 accumulation after proteasome inhibition (immunoblot); format: cell-based, human
Experimental: Nuclear proteins were fractionated using Nuclear Extraction Kit following manufacture's protocol (Active Motif). Total cell lysate was prepared in RIPA buffer and sonicated. For the detection of endogenous ZSCAN4 in Tu167 cells, cells were harvested by accutase (Millipore) and Cytoskeleton buffer (10 mM PIPES, 300 mM sucrose, 100 mM NaCl, 3 mM MgCl2, 1 mM EGTA and 0.5% Triton X100) was used to fractionate cytosolic proteins. Then, pellets were lysed in urea solution (8 M Urea in 0.01 Tris pH 8+0.1 M NaH2PO4) and sonicated. Nuclear proteins were electrophoresed in 8% polyacrylamide gels and transferred to a PVDF membrane. Immunoblot was performed using the following primary antibodies: ZSCAN4 (Origene; 1:1000), GAPDH (Santa Cruz; 1:5000), Actin (Sigma; 1:500), Lamin B (Santa Cruz; 1:2000) and with HRP (horseradish peroxidase) conjugated secondary antibodies (Millipore; 1:5000). Protein bands were detected using Pierce ECL Western Blotting Substrate (Thermo Scientific). SuperSignal West Femto (Thermo Scientific) was used to detect endogenous ZSCAN4 in Tu167 cells. All immunoblots shown represent at least 3 independent experiments.
WT Tu167 cells were treated with indicated concentration of MG132 for 3-12 h. Cells treated with vehicle only were used as controls. Nuclear protein was isolated using urea extraction buffer. Then, 100 μg of nuclear lysate was diluted in IP-RIPA buffer with 0.1% SDS and denatured by heating to 90° C. for 10 minutes. Samples were taken for co-immunoprecipitation and immunoblot analyses.
This prompted examination of the UPS. tet-ZSCAN4 cells were incubated with the proteasome inhibitor MG132 at multiple time points. […] Furthermore, we show a time dependence (FIG. 18C) and a dose response (FIG. 18D) to proteasome inhibition by MG132.
To exclude that the response was specific to the exogenous ZSCAN4 induction, wild type (WT) Tu167 cells were treated with 5 uM MG132 for 0-12 h.

proteasome [3] = assay: ZSCAN4 / K48 ubiquitin co-localization by confocal microscopy; format: cell-based, human; conditions: WT Tu167 cells, 5 h; untreated about 5%
Experimental: Cells were fixed in ice cold methanol/acetic acid (3:1). The fixed cells were dropped on microscope slides. Antigen retrieval was performed followed by blocking for 10 min at room temperature. Primary antibody was incubated overnight at 4° C. for the following antigens: ZSCAN4 (Origene, 1:1000) and Ubiquitin Lysine 48 (Millipore 1: 2000). The slides were washed and incubated with secondary antibodies conjugated with Alexa-488 or 568 at room temperature for 1 h and then treated with DAPI and To-Pro-3 to stain the nuclei. Slides were mounted and visualized by a Zeiss 510-confocal microscope. Co-localization analyses were performed by ImageJ software (Schneider et al., 2012);
To further validate the lysine 48 polyubiquitination of ZSCAN4 protein, WT Tu167 cells were treated with or without MG132 for 5 h and co-immunostained for anti-K48-Ub and anti-ZSCAN4 (FIG. 19C).

telomerase = target: T1, telomerase (UniProt O14746 1-1132, limits assumed); assay: ZSCAN4 complex analysis (ZSCAN4 immunoprecipitation followed by mass spectrometry)
T1 construct: The tie to the hTERT protein subunit is my reading; also called hTERT
T1 sequence (O14746 whole entry): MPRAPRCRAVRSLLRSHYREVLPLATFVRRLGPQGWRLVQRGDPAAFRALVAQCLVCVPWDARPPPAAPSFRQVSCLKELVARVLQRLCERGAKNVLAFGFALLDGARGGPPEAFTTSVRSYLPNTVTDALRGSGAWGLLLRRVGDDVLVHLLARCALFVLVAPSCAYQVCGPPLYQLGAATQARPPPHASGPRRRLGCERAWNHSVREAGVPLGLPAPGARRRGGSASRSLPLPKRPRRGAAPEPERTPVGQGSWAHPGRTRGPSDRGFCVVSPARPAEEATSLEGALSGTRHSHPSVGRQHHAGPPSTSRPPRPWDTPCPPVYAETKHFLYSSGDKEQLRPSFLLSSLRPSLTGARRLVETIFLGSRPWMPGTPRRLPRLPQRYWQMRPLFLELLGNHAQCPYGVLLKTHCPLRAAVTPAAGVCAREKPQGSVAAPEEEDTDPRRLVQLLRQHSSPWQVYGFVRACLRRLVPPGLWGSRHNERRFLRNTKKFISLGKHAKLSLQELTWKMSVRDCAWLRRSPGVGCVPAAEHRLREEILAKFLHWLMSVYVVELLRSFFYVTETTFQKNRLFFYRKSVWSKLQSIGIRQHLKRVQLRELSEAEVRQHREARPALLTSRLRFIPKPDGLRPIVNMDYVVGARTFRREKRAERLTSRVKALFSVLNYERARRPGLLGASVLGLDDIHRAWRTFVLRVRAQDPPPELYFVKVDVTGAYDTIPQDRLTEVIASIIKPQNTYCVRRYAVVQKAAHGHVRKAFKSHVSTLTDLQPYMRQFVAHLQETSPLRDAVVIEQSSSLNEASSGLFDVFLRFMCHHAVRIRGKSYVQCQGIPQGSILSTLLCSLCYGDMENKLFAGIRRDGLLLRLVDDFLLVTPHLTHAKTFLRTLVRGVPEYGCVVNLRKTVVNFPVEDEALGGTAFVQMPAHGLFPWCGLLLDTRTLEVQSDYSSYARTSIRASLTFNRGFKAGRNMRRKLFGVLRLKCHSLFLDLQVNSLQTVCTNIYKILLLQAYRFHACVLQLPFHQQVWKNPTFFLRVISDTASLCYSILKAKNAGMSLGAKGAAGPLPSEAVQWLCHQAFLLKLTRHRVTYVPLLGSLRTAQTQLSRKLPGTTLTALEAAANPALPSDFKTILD

With CO/C1=C\C(C)=C\[C@@H](C)[C@@H](O)[C@@H](C)C/C(C)=C/C=C/[C@H](OC)[C@@H]([C@@H](C)[C@@H](O)[C@H](C)[C@@]2(O)C[C@@H](O)[C@H](C)[C@@H](C(C)C)O2)OC1=O [Bafilomycin A1] the ZSCAN4 levels [1] was “remained unchanged” and the “p62 and LC-3 levels” value [1] was “accumulate”.

CCN(CC)CCCC(C)Nc1ccnc2cc(Cl)ccc12 (stereo not drawn) [Chloroquine] was tested, and the ZSCAN4 levels [1] was “remained unchanged” and the “p62 and LC-3 levels” value [1] was “accumulate”.

For CC(C)C[C@@H](C=O)NC(=O)[C@H](CC(C)C)NC(=O)[C@H](CC(C)C)NC(=O)OCc1ccccc1 [MG132] (Cbz-Leu-Leu-Leu-aldehyde), the “ZSCAN4 accumulation versus dose” value (proteasome [2]; tet-ZSCAN4 cells) was “dose response”, the “ZSCAN4 accumulation over time” value (proteasome [2]; tet-ZSCAN4 cells, multiple time points through 12 h) was “time dependent accumulation of ZSCAN4” and the “endogenous ZSCAN4 level” value (proteasome [2]; wild type Tu167 cells, 5 uM, 0-12 h) was “endogenous ZSCAN4 accumulates”. For the same molecule, the “fraction of ZSCAN4 co-localized with K48-Ub relative to untreated” value (proteasome [3]) was 4 fold.

B1: human ZSCAN4 (Zinc finger and SCAN domain containing 4) (other, UniProt Q8NAM6 1-433, looked up)
chain: MALDLRTIFQCEPSENNLGSENSAFQQSQGPAVQREEGISEFSRMVLNSFQDSNNSYARQELQRLYRIFHSWLQPEKHSKDEIISLLVLEQFMIGGHCNDKASVKEKWKSSGKNLERFIEDLTDDSINPPALVHVHMQGQEALFSEDMPLRDVIVHLTKQVNAQTTREANMGTPSQTSQDTSLETGQGYEDEQDGWNSSSKTTRVNENITNQGNQIVSLIIIQEENGPRPEEGGVSSDNPYNSKRAELVTARSQEGSINGITFQGVPMVMGAGCISQPEQSSPESALTHQSNEGNSTCEVHQKGSHGVQKSYKCEECPKVFKYLCHLLAHQRRHRNERPFVCPECQKGFFQISDLRVHQIIHTGKKPFTCSMCKKSFSHKTNLRSHERIHTGEKPYTCPFCKTSYRQSSTYHRHMRTHEKITLPSVPSTPEAS
notes: Immunoprecipitated from nuclear protein lysates; also called FLAG-ZSCAN4; tet-FLAG-ZSCAN4
B1: no binding (telomerase).
